According to patent US4987132A, “Saturated heterocyclic carboxamide derivatives” (Yamanouchi Pharmaceutical Co., Ltd., priority 1987, dated 1991):
Structures can show the parent of a compound that is named as a salt. Where two headings read alike, the source gives them in different places.

Tests used:
Type in all cases: cell-based, rabbit (Japan white, male)
[1] = test system: platelet activating factor (PAF)-induced rabbit platelet aggregation in plasma; assay: PAF-induced platelet aggregation in rabbit platelet rich plasma
Experimental: (§1) Method: Nine volumes of blood were drawn from the central ear artery of male rabbit (Japan white, 3 kg) directly into plastic syringe containing 1 volume of 3.8% sodium citrate. The blood was centrifuged at 270×g for 10 minutes at room temperature and the platelet rich plasma (PRP) was removed. The pellet was further centrifuged at 1,100×g for 15 minutes. The supernatant was used as platelet poor plasma (PPP). The platelet concentration was adjusted to 5×10^5 cells/μl with PPP. Platelet aggregation was measured by the method of G. V. R. Born and M. J. Cross [Journal of Physiology, 168, 178-195 (1963)] using a HEMA TRACER (Nikou Bio Science, Japan). Varying concentration of compounds were added to the PRP 2 minutes prior to PAF (10^-8 M). The extent of platelet aggregation was determined by the maximum change of light transmission, assigning the transmission of unstimulated PRP to be 0% and that of PPP to be as 100%. Percent inhibition with compound was calculated by dividing the percent aggregation in the presence of compound by that in the control, and then the IC50 values were calculated.

[2] = test system: platelet aggregation induced by ADP; assay: platelet aggregation induced by ADP; details: ADP 3×10^-6 M; data not shown
Experimental: as §1, with “Varying concentration of compounds were added to the PRP 2 minutes prior to PAF (10^-8 M).” left out

[3] = test system: platelet aggregation induced by arachidonic acid; assay: platelet aggregation induced by arachidonic acid; details: arachidonic acid 1×10^-4 M; data not shown
Experimental: as §1, with “Varying concentration of compounds were added to the PRP 2 minutes prior to PAF (10^-8 M).” left out

[4] = test system: platelet aggregation induced by collagen; assay: platelet aggregation induced by collagen; details: collagen 10 μg/ml; data not shown
Experimental: as §1, with “Varying concentration of compounds were added to the PRP 2 minutes prior to PAF (10^-8 M).” left out

[5] = Oryctolagus cuniculus, Platelet, Table 1, PAF 10^-8 M, compound added 2 minutes prior to PAF, rabbit PRP, read-out: IC50
[6] = Oryctolagus cuniculus, Platelet
[7] = Oryctolagus cuniculus, Platelet, PAF 10^-8 M, compound added 2 minutes prior to PAF, rabbit PRP, read-out: IC50 values

Structure (SMILES): Cc1ccc(CNC(=O)C2CSC(c3cccnc3)N2)cc1 (stereo not drawn) [Example 20, N-(p-Methylbenzyl)-2-(3-pyridyl)thiazolidine-4-carboxamide dihydrochloride]
- IC50 [1, 5]: 800 nM

Structure (SMILES): CN(Cc1ccccc1)C(=O)C1CSC(c2cccnc2)N1 (stereo not drawn) [Example 22, N-benzyl-N-methyl-2-(3-pyridyl)thiazolidine-4-carboxamide dihydrochloride]
- IC50 [1, 5]: 790 nM

Structure (SMILES): O=C(NCc1ccc(OCCCCc2ccccc2)cc1)C1CSC(c2cccnc2)N1 (stereo not drawn) [Example 23, N-2-(3-pyridyl)thiazolidine-4-carboxamide dihydrochloride]
- IC50 [1, 5]: 430 nM

Structure (SMILES): CCCCCCCOc1ccc(CNC(=O)C2CSC(c3cccnc3)N2)cc1 (stereo not drawn) [Example 24, N-(p-Heptyloxybenzyl)-2-(3-pyridyl)thiazolidine-4-carboxamide dihydrochloride]
- IC50 [1, 5]: 250 nM

Structure (SMILES): O=C(C1CSC(c2cccnc2)N1)N1CCN(c2ccccc2)CC1 (stereo not drawn) [Example 32, trihydrochloride]
- IC50 [1, 5]: 490 nM

Structure (SMILES): O=C(NC1CCCCC1)C1CSC(c2cccnc2)N1 (stereo not drawn) [Example 34, N-cyclohexyl-2-(3-pyridyl)thiazolidine-4-carboxamide dihydrochloride]
- IC50 [1, 6]: 950 nM

Structure (SMILES): O=C(C1CSC(c2cccnc2)N1)N1CCC(Cc2ccccc2)CC1 (stereo not drawn) [Example 36, 4-benzyl-1-[2-(3-pyridyl)thiazolidin-4-ylcarbonyl]piperidine dihydrochloride]
- IC50 [1, 5]: 860 nM

Structure (SMILES): O=C(C1CSC(c2cccnc2)N1)N1CCC(c2ccccc2)CC1 (stereo not drawn) [Example 46, 4-phenyl-1-[2-(3-pyridyl)thiazolidin-4-ylcarbonyl]piperidine dihydrochloride]
- IC50 [1, 5]: 650 nM

Structure (SMILES): O=C(C1CSC(c2cccnc2)N1)N1CCN(Cc2ccccc2)CC1 (stereo not drawn) [Example 48, 1-benzyl-4-[2(3-pyridyl)thiazolidin-4-ylcarbonyl]piperazine trihydrochloride]
- IC50 [1, 5]: 450 nM

Structure (SMILES): Cl.Cl.Cl.O=C(C1CSC(c2cccnc2)N1)N1CCN(CCCCc2ccccc2)CC1 (stereo not drawn) [Example 49, 1-(4-phenylbutyl)-4-[2-(3-pyridyl)thiazolidin-4-ylcarbonyl]piperazine trihydrochloride]
- IC50 [1, 7]: 28 to 85 nM
- IC50 [1, 5]: 85 nM
- inhibition of platelet aggregation induced by ADP [2]: did not inhibit
- inhibition of platelet aggregation induced by arachidonic acid [3]: did not inhibit
- inhibition of platelet aggregation induced by collagen [4]: did not inhibit

Structure (SMILES): O=C(NNc1ccccc1)C1CSC(c2cccnc2)N1 (stereo not drawn) [Example 50, N'-phenyl-2-(3-pyridyl)thiazolidine-4-carbohydrazide]
- IC50 [1, 5]: 800 nM

Structure (SMILES): CC(C)CCOc1ccc(CNC(=O)C2CSC(c3cccnc3)N2)cc1 (stereo not drawn) [Example 54, N-[p-(3-methylbutoxy)benzyl]-2-(3-pyridyl)thiazolidine-4-carboxamide dihydrochloride]
- IC50 [1, 5]: 240 nM

Structure (SMILES): CC(C)COc1ccc(CNC(=O)C2CSC(c3cccnc3)N2)cc1 (stereo not drawn) [Example 55]
- IC50 [1, 5]: 160 nM

Structure (SMILES): CC(C)CCCOc1ccc(CNC(=O)C2CSC(c3cccnc3)N2)cc1 (stereo not drawn) [Example 56]
- IC50 [1, 5]: 120 nM

Structure (SMILES): O=C(NCc1ccc(OCC2CCCC2)cc1)C1CSC(c2cccnc2)N1 (stereo not drawn) [Example 57]
- IC50 [1, 5]: 200 nM

Structure (SMILES): O=C(NCc1ccc(OCCCc2ccccc2)cc1)C1CSC(c2cccnc2)N1 (stereo not drawn) [Example 58]
- IC50 [1, 5]: 390 nM

Structure (SMILES): COc1cc(CNC(=O)C2CSC(c3cccnc3)N2)ccc1OCCCCc1ccccc1 (stereo not drawn) [Example 59]
- IC50 [1, 5]: 210 nM

Structure (SMILES): O=C(NCc1ccc(OCCCOc2ccccc2)cc1)C1CSC(c2cccnc2)N1 (stereo not drawn) [Example 60]
- IC50 [1, 5]: 760 nM

Structure (SMILES): CCCCc1ccc(CNC(=O)C2CSC(c3cccnc3)N2)cc1 (stereo not drawn) [Example 61]
- IC50 [1, 5]: 770 nM

Structure (SMILES): Cc1ccc(CN2CCN(C(=O)C3CSC(c4cccnc4)N3)CC2)cc1 (stereo not drawn) [Example 63]
- IC50 [1, 5]: 500 nM

Structure (SMILES): O=C(C1CSC(c2cccnc2)N1)N1CCN(CC=Cc2ccccc2)CC1 (stereo not drawn) [Example 64]
- IC50 [1, 5]: 390 nM

Structure (SMILES): O=C(C1CSC(c2cccnc2)N1)N1CCN(CCCOc2ccccc2)CC1 (stereo not drawn) [Example 65]
- IC50 [1, 5]: 120 nM

Structure (SMILES): O=C(CN1CCN(C(=O)C2CSC(c3cccnc3)N2)CC1)c1ccccc1 (stereo not drawn) [Example 66]
- IC50 [1, 5]: 430 nM

Structure (SMILES): O=C(CCCN1CCN(C(=O)C2CSC(c3cccnc3)N2)CC1)c1ccc(Br)cc1 (stereo not drawn) [Example 67]
- IC50 [1, 7]: 28 to 85 nM
- IC50 [1, 5]: 71 nM
- inhibition of platelet aggregation induced by ADP [2]: did not inhibit
- inhibition of platelet aggregation induced by arachidonic acid [3]: did not inhibit
- inhibition of platelet aggregation induced by collagen [4]: did not inhibit

Structure (SMILES): CCCCCCCN1CCN(C(=O)C2CSC(c3cccnc3)N2)CC1 (stereo not drawn) [Example 71]
- IC50 [1, 7]: 28 to 85 nM
- IC50 [1, 5]: 64 nM
- inhibition of platelet aggregation induced by ADP [2]: did not inhibit
- inhibition of platelet aggregation induced by arachidonic acid [3]: did not inhibit
- inhibition of platelet aggregation induced by collagen [4]: did not inhibit

Structure (SMILES): O=C(C1CSC(c2cccnc2)N1)N1CCC(CCc2ccccc2)CC1 (stereo not drawn) [Example 72]
- IC50 [1, 5]: 900 nM

Structure (SMILES): O=C(C1CSC(c2cccnc2)N1)N1CCCN(Cc2ccccc2)CC1 (stereo not drawn) [Example 76]
- IC50 [1, 5]: 900 nM

Structure (SMILES): CCCCCCCN1CCCN(C(=O)C2CSC(c3cccnc3)N2)CC1 (stereo not drawn) [Example 80]
- IC50 [1, 5]: 340 nM

Structure (SMILES): CCCCCCCCCCN1CCN(C(=O)C2CSC(c3cccnc3)N2)CC1 (stereo not drawn) [Example 81, 1-decyl-4-[2-(3-pyridyl)thiazolidin-4-ylcarbonyl]piperazine trihydrochloride]
- IC50 [1, 7]: 28 to 85 nM
- IC50 [1, 5]: 28 nM
- inhibition of platelet aggregation induced by ADP [2]: did not inhibit
- inhibition of platelet aggregation induced by arachidonic acid [3]: did not inhibit
- inhibition of platelet aggregation induced by collagen [4]: did not inhibit

Structure (SMILES): O=C(C1CSC(c2cccnc2)N1)N1CCN(CCc2ccccc2)CC1 (stereo not drawn) [Example 84]
- IC50 [1, 5]: 220 nM

Structure (SMILES): O=C(C1CSC(c2cccnc2)N1)N1CCN(CCCCCc2ccccc2)CC1 (stereo not drawn) [Example 85]
- IC50 [1, 7]: 28 to 85 nM
- IC50 [1, 5]: 72 nM
- inhibition of platelet aggregation induced by ADP [2]: did not inhibit
- inhibition of platelet aggregation induced by arachidonic acid [3]: did not inhibit
- inhibition of platelet aggregation induced by collagen [4]: did not inhibit

Structure (SMILES): CN(Cc1ccc(OCCCc2ccccc2)cc1)C(=O)C1CSC(c2cccnc2)N1 (stereo not drawn) [Example 89]
- IC50 [1, 5]: 400 nM

Structure (SMILES): CCCCCCCCN1CCN(C(=O)C2CSC(c3cccnc3)N2)CC1 (stereo not drawn) [Example 90, 1-octyl-4-[2-(3-pyridyl)thiazolidin-4-ylcarbonyl]piperazine fumarate]
- IC50 [1, 7]: 28 to 85 nM
- IC50 [1, 5]: 67 nM
- inhibition of platelet aggregation induced by ADP [2]: did not inhibit
- inhibition of platelet aggregation induced by arachidonic acid [3]: did not inhibit
- inhibition of platelet aggregation induced by collagen [4]: did not inhibit

Structure (SMILES): CCCCCCN1CCN(C(=O)C2CSC(c3cccnc3)N2)CC1 (stereo not drawn) [Example 92]
- IC50 [1, 5]: 260 nM

Structure (SMILES): CC(C)CCCN1CCN(C(=O)C2CSC(c3cccnc3)N2)CC1 (stereo not drawn) [Example 93]
- IC50 [1, 5]: 630 nM

Structure (SMILES): Cc1ncccc1C1NC(C(=O)N2CCN(CCCc3ccccc3)CC2)CS1 (stereo not drawn) [Example 97]
- IC50 [1, 5]: 120 nM

Structure (SMILES): CCCCCCN1CCN(C(=O)C2CSC(c3cccnc3)N2)CC1 (stereo not drawn) [Example 117]
- IC50 ([1]; Table 1, PAF 10^-8 M, compound added 2 minutes prior to PAF, rabbit PRP, read-out: IC50): 260 nM

Structure (SMILES): Cc1ccc(CCCN2CCN(C(=O)C3CSC(c4cccnc4)N3)CC2)cc1 (stereo not drawn) [Example 119]
- IC50 [1, 7]: 28 to 85 nM
- IC50 [1, 5]: 79 nM
- inhibition of platelet aggregation induced by ADP [2]: did not inhibit
- inhibition of platelet aggregation induced by arachidonic acid [3]: did not inhibit
- inhibition of platelet aggregation induced by collagen [4]: did not inhibit

Structure (SMILES): COc1ccc(CCCN2CCN(C(=O)C3CSC(c4cccnc4)N3)CC2)cc1 (stereo not drawn) [Example 120]
- IC50 [1, 5]: 170 nM

Structure (SMILES): O=C(C1CSC(c2cccnc2)N1)N1CCN(CCCc2ccc(O)cc2)CC1 (stereo not drawn) [Example 121]
- IC50 [1, 5]: 190 nM

Structure (SMILES): O=C(C1CSC(c2cccnc2)N1)N1CCN(CCCc2ccc(Cl)cc2)CC1 (stereo not drawn) [Example 123]
- IC50 [1, 5]: 180 nM

Structure (SMILES): O=C(C1CSC(c2cccnc2)N1)N1CCN(CCCc2ccc(F)cc2)CC1 (stereo not drawn) [Example 124]
- IC50 [1, 5]: 180 nM

Structure (SMILES): O=C(C1CSC(c2cccnc2)N1)N1CCN(CCCc2ccc([N+](=O)[O-])cc2[N+](=O)[O-])CC1 (stereo not drawn) [Example 125]
- IC50 [1, 6]: 450 nM

Structure (SMILES): Nc1ccc(CCCN2CCN(C(=O)C3CSC(c4cccnc4)N3)CC2)cc1 (stereo not drawn) [Example 126]
- IC50 [1, 5]: 180 nM

Structure (SMILES): Cc1ccccc1CCCN1CCN(C(=O)C2CSC(c3cccnc3)N2)CC1 (stereo not drawn) [Example 127]
- IC50 [1, 5]: 460 nM

Structure (SMILES): N#Cc1ccc(CCCN2CCN(C(=O)C3CSC(c4cccnc4)N3)CC2)cc1 (stereo not drawn) [Example 128]
- IC50 [1, 5]: 970 nM

Structure (SMILES): CC(CCN1CCN(C(=O)C2CSC(c3cccnc3)N2)CC1)c1ccccc1 (stereo not drawn) [Example 142]
- IC50 [1, 7]: 28 to 85 nM
- inhibition of platelet aggregation induced by ADP [2]: did not inhibit
- inhibition of platelet aggregation induced by arachidonic acid [3]: did not inhibit
- inhibition of platelet aggregation induced by collagen [4]: did not inhibit
